Data on 14 compounds can be found in patent publication US8129371B2, “Thienopyrimidine and pyrazolopyrimidine compounds and their use as mTOR kinase and PI3 kinase inhibitors” (Wyeth LLC, priority 2007, dated 2012).

One experiment has as its system breast line MDA468. The experiment can be described thus: In vitro cell culture growth assay (MTS), MDA468. The note with it: Homo sapiens, 72 h, MDA468 cells, three days after drug treatment. The class given is cell-based. As for the experimental part:
(§1) Human tumor cell lines used include prostate lines LNCap and PC3MM2, breast lines MDA468, MCF7, renal line HTB44 (A498), colon line HCT116, and ovarian line OVCAR3. Cells were plated in 96-well culture plates. One day following plating, the inhibitors were added to cells. Three days after drug treatment, viable cell densities were determined by metabolic conversion (by viable cells) of the dye MTS, a well-established cell proliferation assay. The assays were performed using an assay kit purchased from Promega Corp. (Madison, Wis.) following the protocol supplied with the kit. The MTS assay results were read in a 96-well plate reader by measuring absorbance at 490 nm. The effect of each treatment was calculated as percent of control growth relative to the vehicle-treated cells grown in the same culture plate.

A further experiment concerns the target T1, Human mTOR (FLAG-TOR) (Homo sapiens, UniProt P42345).
T1 construct: FLAG
The experiment can be described thus: Human mTOR kinase assay with purified enzyme, DELFIA format. The class given is biochemical. As for the experimental part:
Enzymes are first diluted in kinase assay buffer (10 mM HEPES (pH 7.4), 50 mM NaCl, 50 mM β-glycerophosphate, 10 mM MnCl2, 0.5 mM DTT, 0.25 mM microcystin LR, and 100 mg/mL BSA). To each well, 12 μL of the diluted enzyme is mixed briefly with 0.5 μL test inhibitor or control vehicle dimethylsulfoxide (DMSO). […] The reaction plate is incubated for 2 hours (linear at 1-6 hours) at room temperature with gentle shaking and then terminated by adding 25 μL Stop buffer (20 mM HEPES (pH 7.4), 20 mM EDTA, 20 mM EGTA). […] The DELFIA Assay buffer and Enhancement solution can be purchased from PerkinElmer. 45 μL of the terminated kinase reaction mixture is transferred to a MaxiSorp plate (Nunc) containing 55 μL PBS. The His6-S6K is allowed to attach for 2 hours after which the wells are aspirated and washed once with PBS. 100 μL of DELFIA Assay buffer with 40 ng/mL Eu—P(T389)-S6K antibody is added. The antibody binding is continued for 1 hour with gentle agitation. The wells are then aspirated and washed 4 times with PBS containing 0.05% Tween-20 (PBST). 100 μL of DELFIA Enhancement solution is added to each well and the plates are read in a PerkinElmer Victor model plate reader. Data obtained is used to calculate enzymatic activity and enzyme inhibition by potential inhibitors.

For another experiment, the system named is prostate line LNCap. The experiment can be described thus: In vitro cell culture growth assay (MTS), LNCap. Format: cell-based. The note with it: Homo sapiens, LNCaP, 72 h, LNCap cells, three days after drug treatment. On the procedure: as §1
Experiment [1] concerns the target T2, PI3K (Homo sapiens, UniProt P42336).
T2 construct: PI3 Kinase α IC50; other: PI3 Kinase α; other: PI3 Kinase α isoform, fluorescence polarization
Kind of experiment: Fluorescence polarization assay for PI3K. The class given is biochemical. The note with it: read-out: PI3 Kinase α IC50. As for the experimental part: (§2) This assay is used to determine the IC50 of compounds of the present invention as it identifies inhibitors of PI3 kinase by measuring inhibition.
(§3) The assay is run by placing 5 μL of diluted enzyme per well, then 5 μL of diluted compound (or 9.5 μL enzyme then 0.5 μL compound in DMSO) is added and mixed. Then, 10 μL substrate is added to start the reaction. The samples are incubated 30-60 minutes, then the reaction is stopped by adding 20 μL stop/detector mix. PI3K is diluted with reaction buffer (e.g., 5 μL or 7.5 μL PI3K into 620 μL reaction buffer), and 5 μL of diluted enzyme is used per well. 5 μL reaction buffer or drug diluted in buffer (e.g., 4 μL/100 so final DMSO is 1% in reaction) is added to each. Pipetting up and down mixes the samples. Alternatively, the enzyme can be diluted to 1215 μL. In this case 9.8 μL is added per well and 0.2 μL compound is added in DMSO. To prepare 1 mL of substrate solution, 955 μL reaction buffer, 40 μL PIP2, and 2.5 μL ATP are mixed. 10 μL of substrate is added to each well to start the reaction.
(§4) Stop/detector mix is prepared by mixing 4 μL Red detector and 1.6 μL or 2.0 μL GST-GRP with 1 mL Stop buffer, which results in 10 nM probe and 70 nM GST-GRP). 20 μL of the stop/detector mix is added to each well to stop the reaction. The plates are read after 30-90 minutes keeping the red probe solutions dark. For the zero time point, stop/detector mix is added to the enzyme just before adding substrate. For an extra control, stop/detector mix is added to buffer (no enzyme) and substrate or to just buffer (no substrate). […] Plates are read on machines with filters for Tamra. The units are mP with no enzyme controls reading app 190-220 mP units. Fully active enzyme reduces fluorescence polarization down to 70-100 mP after 30 minutes.
A general note: In fluorescence polarisation assays a small probe gives low polarisation when free and higher when bound to something large.

Experiment [2] addresses T3, PI3K (Homo sapiens, UniProt P48736).
T3 construct: PI3 Kinase γ IC50; other: PI3 Kinase γ; other: PI3 Kinase γ isoform, fluorescence polarization
The experiment can be described thus: Fluorescence polarization assay for PI3K. Format: biochemical. The note with it: read-out: PI3 Kinase γ IC50. As for the experimental part: as §2, §3, §4

[3] abbreviates: purified human mTOR enzyme, DELFIA format.
Where [4] appears, read: PI3 Kinase α isoform, fluorescence polarization.
The mark [5] stands for this setting: PI3 Kinase γ isoform, fluorescence polarization.

Where two headings read alike, the source gives them in different places.

T3 sequence (P48736 whole entry, canonical isoform): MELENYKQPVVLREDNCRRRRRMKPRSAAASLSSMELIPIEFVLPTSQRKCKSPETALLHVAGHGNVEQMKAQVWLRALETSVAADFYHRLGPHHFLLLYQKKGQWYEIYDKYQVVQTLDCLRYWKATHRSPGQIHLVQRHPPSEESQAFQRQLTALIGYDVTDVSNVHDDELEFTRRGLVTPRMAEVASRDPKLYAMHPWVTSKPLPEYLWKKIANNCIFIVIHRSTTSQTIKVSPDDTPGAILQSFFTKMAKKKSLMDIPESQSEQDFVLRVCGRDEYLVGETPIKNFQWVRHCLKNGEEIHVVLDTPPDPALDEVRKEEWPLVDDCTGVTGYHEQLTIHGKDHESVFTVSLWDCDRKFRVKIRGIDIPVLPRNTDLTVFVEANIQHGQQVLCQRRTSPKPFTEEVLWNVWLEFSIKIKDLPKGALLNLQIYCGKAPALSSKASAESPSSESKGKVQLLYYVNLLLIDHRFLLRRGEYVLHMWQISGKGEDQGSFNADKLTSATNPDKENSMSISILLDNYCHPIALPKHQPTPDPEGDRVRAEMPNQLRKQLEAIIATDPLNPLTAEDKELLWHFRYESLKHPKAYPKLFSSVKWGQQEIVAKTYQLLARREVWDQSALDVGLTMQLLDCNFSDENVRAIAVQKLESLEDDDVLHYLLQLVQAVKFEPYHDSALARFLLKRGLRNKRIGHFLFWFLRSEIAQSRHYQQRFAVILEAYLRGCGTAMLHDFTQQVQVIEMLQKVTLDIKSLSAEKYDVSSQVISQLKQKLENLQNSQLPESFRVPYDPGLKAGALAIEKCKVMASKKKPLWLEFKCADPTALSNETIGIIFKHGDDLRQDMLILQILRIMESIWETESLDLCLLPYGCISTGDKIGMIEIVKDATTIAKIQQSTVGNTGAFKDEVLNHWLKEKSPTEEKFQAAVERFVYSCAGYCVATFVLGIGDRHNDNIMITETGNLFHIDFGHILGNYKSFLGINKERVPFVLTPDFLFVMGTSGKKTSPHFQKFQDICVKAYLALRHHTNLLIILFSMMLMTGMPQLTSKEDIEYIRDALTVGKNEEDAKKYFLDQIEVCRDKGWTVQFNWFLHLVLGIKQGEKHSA
T2 sequence (P42336 whole entry, canonical isoform): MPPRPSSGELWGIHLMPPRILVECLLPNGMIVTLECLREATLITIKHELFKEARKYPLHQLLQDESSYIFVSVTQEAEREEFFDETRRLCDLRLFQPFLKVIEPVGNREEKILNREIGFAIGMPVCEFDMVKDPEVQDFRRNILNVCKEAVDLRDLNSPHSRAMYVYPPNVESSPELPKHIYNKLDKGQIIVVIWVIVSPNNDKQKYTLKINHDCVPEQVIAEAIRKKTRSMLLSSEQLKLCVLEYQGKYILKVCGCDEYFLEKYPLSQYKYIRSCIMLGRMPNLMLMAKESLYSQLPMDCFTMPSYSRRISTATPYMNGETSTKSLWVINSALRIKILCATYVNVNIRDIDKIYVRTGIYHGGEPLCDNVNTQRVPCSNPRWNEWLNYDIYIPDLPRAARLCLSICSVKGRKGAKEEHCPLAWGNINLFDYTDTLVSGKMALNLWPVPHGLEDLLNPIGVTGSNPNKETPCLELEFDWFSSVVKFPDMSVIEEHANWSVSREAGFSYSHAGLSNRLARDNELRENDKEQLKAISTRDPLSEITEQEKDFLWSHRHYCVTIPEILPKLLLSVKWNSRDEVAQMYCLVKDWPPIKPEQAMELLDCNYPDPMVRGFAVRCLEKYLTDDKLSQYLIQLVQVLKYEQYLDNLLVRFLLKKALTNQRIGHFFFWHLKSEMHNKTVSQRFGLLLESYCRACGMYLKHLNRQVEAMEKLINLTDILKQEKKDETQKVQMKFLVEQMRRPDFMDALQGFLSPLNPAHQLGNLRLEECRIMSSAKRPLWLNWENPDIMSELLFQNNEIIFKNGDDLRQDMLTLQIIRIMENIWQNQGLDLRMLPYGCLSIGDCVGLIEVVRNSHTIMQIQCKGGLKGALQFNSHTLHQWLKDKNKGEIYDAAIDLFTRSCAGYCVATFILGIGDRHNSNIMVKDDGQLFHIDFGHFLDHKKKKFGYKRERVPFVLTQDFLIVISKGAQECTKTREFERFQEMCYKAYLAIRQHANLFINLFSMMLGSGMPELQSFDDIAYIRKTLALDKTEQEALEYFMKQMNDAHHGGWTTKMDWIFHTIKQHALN

The term IC50 denotes the concentration at which inhibition is half-maximal. Regarding `CC(C)(C)n1ncc2c(N3CC4CCC(C3)O4)nc(-c3ccc(NC(=O)Nc4cccnc4)cc3)nc21` [Example 100], the IC50 in the experiment on breast line MDA468 came to 130 nM; on Human mTOR (FLAG-TOR), 0.63 nM; in the experiment with prostate line LNCap, 20 nM; on PI3K [1] (PI3 Kinase α), 149 nM; at PI3K [2] (PI3 Kinase γ), 794 nM.

For `COC(=O)N1CCC(n2ncc3c(N4CC5CCC(C4)O5)nc(-c4ccc(NC(=O)Nc5ccc(CCO)cc5)cc4)nc32)CC1` [Example 165, methyl 4-{6-[4-({[4-(2-hydroxyethyl)phenyl]carbamoyl}amino)phenyl]-4-(8-oxa-3-azabicyclo[3.2.1]oct-3-yl)-1H-pyrazolo[3,4-d]pyrimidin-1-yl}piperidine-1-carboxylate], the half-maximal inhibitory concentration (IC50) in the experiment on breast line MDA468 was below 1 nM; against Human mTOR (FLAG-TOR), 0.095 nM; with prostate line LNCap, below 1 nM; on PI3K [1] (PI3 Kinase α), 54 nM; on PI3K [2] (PI3 Kinase γ), 2490 nM.

As for `COC1CCC(n2ncc3c(N4CC5CCC(C4)O5)nc(-c4ccc(NC(=O)Nc5cccnc5)cc4)nc32)CC1` (stereo not shown) [Example 384, 1-{4-[1-(4-methoxycyclohexyl)-4-(8-oxa-3-azabicyclo[3.2.1]oct-3-yl)-1H-pyrazolo[3,4-d]pyrimidin-6-yl]phenyl}-3-pyridin-3-ylurea], the IC50 with breast line MDA468 is 22 nM; on Human mTOR (FLAG-TOR) (setting [3]), 0.175 nM; in the experiment on prostate line LNCap it was 2 nM; on PI3K [1] (setting [4]), 297 nM; on PI3K [2] (setting [5]), 2170 nM.

`COC(=O)Nc1ccc(-c2nc(N3CC4CCC(C3)O4)c3cnn(C4CCC5(CC4)OCCO5)c3n2)cc1` [Example 377, methyl {4-[1-(1,4-dioxaspiro[4.5]dec-8-yl)-4-(8-oxa-3-azabicyclo[3.2.1]oct-3-yl)-1H-pyrazolo[3,4-d]pyrimidin-6-yl]phenyl}carbamate]: the IC50 was 1200 nM in the experiment on breast line MDA468; 2.5 nM at Human mTOR (FLAG-TOR) (setting [3]); 140 nM in the experiment on prostate line LNCap; 7360 nM at PI3K [1] (setting [4]); above 10000 nM on PI3K [2] (setting [5]).

With `Nc1ccc(-c2nc(N3CC4CCC(C3)O4)c3cnn(C4CCC5(CC4)OCCO5)c3n2)cc1` [Example 81, 4-[1-(1,4-dioxaspiro[4.5]dec-8-yl)-4-(8-oxa-3-azabicyclo[3.2.1]oct-3-yl)-1H-pyrazolo[3,4-d]pyrimidin-6-yl]aniline], the concentration for half-maximal inhibition (IC50) was 5800 nM with breast line MDA468; 54 nM against Human mTOR (FLAG-TOR); 1050 nM with prostate line LNCap; above 10000 nM on PI3K [1] (PI3 Kinase α); above 10000 nM at PI3K [2] (PI3 Kinase γ).

On to `CNC(=O)Nc1ccc(-c2nc(N3CC4CCC(C3)O4)c3cnn(C4CCN(C(=O)C(C)C)CC4)c3n2)cc1` [Example 82, 1-{4-[1-(1-isobutyrylpiperidin-4-yl)-4-(8-oxa-3-azabicyclo[3.2.1]oct-3-yl)-1H-pyrazolo[3,4-d]pyrimidin-6-yl]phenyl}-3-methylurea], for which the concentration for half-maximal inhibition (IC50) was 230 nM with breast line MDA468; 0.58 nM against Human mTOR (FLAG-TOR); 60 nM in the experiment on prostate line LNCap; 1710 nM at PI3K [1] (PI3 Kinase α); above 10000 nM at PI3K [2] (PI3 Kinase γ).

With `CNC(=O)Nc1ccc(-c2nc(N3CC4CCC(C3)O4)c3sc(CN4CCN(S(C)(=O)=O)CC4)cc3n2)cc1` [Example 429, 1-methyl-3-{4-[6-{[4-(methylsulfonyl)piperazin-1-yl]methyl}-4-(8-oxa-3-azabicyclo[3.2.1]oct-3-yl)thieno[3,2-d]pyrimidin-2-yl]phenyl}urea], the half-maximal inhibitory concentration (IC50) with breast line MDA468 worked out at 90 nM; against Human mTOR (FLAG-TOR) (setting [3]), 1.41 nM; in the experiment with prostate line LNCap it was 120 nM; on PI3K [1] (setting [4]), 46 nM; on PI3K [2] (setting [5]), 3710 nM.

Consider `Nc1ccc(-c2nc(N3CC4CCC(C3)O4)c3cnn(CC(F)(F)F)c3n2)cc1` [Example 374, 4-[4-(8-oxa-3-azabicyclo[3.2.1]oct-3-yl)-1-(2,2,2-trifluoroethyl)-1H-pyrazolo[3,4-d]pyrimidin-6-yl]aniline], for which the values for the IC50 in the experiment with breast line MDA468, against Human mTOR (FLAG-TOR) (setting [3]) and with prostate line LNCap were 5500 nM, 57 nM and 1000 nM, respectively.

Take `CS(=O)(=O)N1CCN(Cc2cc3nc(-c4ccc(NC(=O)Nc5cccnc5)cc4)nc(N4CC5CCC(C4)O5)c3s2)CC1` [Example 433, 1-{4-[6-{[4-(methylsulfonyl)piperazin-1-yl]methyl}-4-(8-oxa-3-azabicyclo[3.2.1]oct-3-yl)thieno[3,2-d]pyrimidin-2-yl]phenyl}-3-pyridin-3-ylurea]: the half-maximal inhibitory concentration (IC50) with breast line MDA468 was 60 nM; against Human mTOR (FLAG-TOR) (setting [3]), 0.56 nM; at PI3K [1] (setting [4]), 12 nM; on PI3K [2] (setting [5]) it was 286 nM.

Consider `CNC(=O)Nc1ccc(-c2nc(N3C4COCC3C(O)C4)c3cnn(CC(F)(F)F)c3n2)cc1` (stereo not shown) [Example 390, 1-{4-[4-(6-hydroxy-3-oxa-8-azabicyclo[3.2.1]oct-8-yl)-1-(2,2,2-trifluoroethyl)-1H-pyrazolo[3,4-d]pyrimidin-6-yl]phenyl}-3-methylurea], for which the IC50 in the experiment on breast line MDA468 amounted to 10000 nM; on Human mTOR (FLAG-TOR) (setting [3]) it was 540 nM; in the experiment with prostate line LNCap it was 12000 nM.

On to `Oc1ccc(-c2nc(N3CC4CCC(C3)O4)c3sccc3n2)cc1` [Example 418, 4-[4-(8-oxa-3-azabicyclo[3.2.1]oct-3-yl)thieno[3,2-d]pyrimidin-2-yl]phenol], for which the IC50 was 17000 nM with breast line MDA468, 34 nM on Human mTOR (FLAG-TOR) (setting [3]), 6270 nM at PI3K [1] (setting [4]) and above 10000 nM at PI3K [2] (setting [5]).

Turning to `COC(=O)N1CCC(n2ncc3c(N4CC5CCC(C4)O5)nc(-c4ccc(NC(=O)NC5CC5)cc4)nc32)CC1` [Example 12, methyl 4-[6-{4-[(cyclopropylcarbamoyl)amino]phenyl}-4-(8-oxa-3-azabicyclo[3.2.1]oct-3-yl)-1H-pyrazolo[3,4-d]pyrimidin-1-yl]piperidine-1-carboxylate], the IC50 in the experiment on breast line MDA468 is 300 nM; against Human mTOR (FLAG-TOR) it was 0.52 nM; in the experiment on prostate line LNCap it was 23 nM; on PI3K [2] (PI3 Kinase γ), above 10000 nM.

As for `CNC(=O)Nc1ccc(-c2nc(N3CC4CCC(C3)O4)c3sc(CN4CCN(C)CC4)cc3n2)cc1` [Example 423, 1-methyl-3-(4-{6-[(4-methylpiperazin-1-yl)methyl]-4-(8-oxa-3-azabicyclo[3.2.1]oct-3-yl)thieno[3,2-d]pyrimidin-2-yl}phenyl)urea], the IC50 in the experiment with breast line MDA468 came to 1000 nM; against Human mTOR (FLAG-TOR) (setting [3]), 19.5 nM; on PI3K [1] (setting [4]) it was 322 nM; at PI3K [2] (setting [5]), 5720 nM.

In the case of `Oc1cccc(-c2nc(N3CC4CCC(C3)O4)c3sccc3n2)c1` [Example 417, 3-[4-(8-oxa-3-azabicyclo[3.2.1]oct-3-yl)thieno[3,2-d]pyrimidin-2-yl]phenol], the 50% inhibitory concentration (IC50) was 7800 nM with breast line MDA468, 61 nM against Human mTOR (FLAG-TOR) (setting [3]), 399 nM at PI3K [1] (setting [4]) and above 10000 nM on PI3K [2] (setting [5]).
